Laboratory results reported in ChEMBL document CHEMBL4507289, “Data for DCP probe GSM1” (2021).

Columns and labels:
[1] = target: Dual specificity mitogen-activated protein kinase kinase 3 (Homo sapiens) (UniProt P46734); conditions: Compound concentration 1000.0 nM
[2] = system: Hepatocyte growth factor receptor (Homo sapiens), P08581 [M1250T]; conditions: Compound concentration 1000.0 nM
[3] = target: Proto-oncogene tyrosine-protein kinase receptor Ret (Homo sapiens) (UniProt P07949); conditions: Compound concentration 1000.0 nM
[4] = target: Muscarinic acetylcholine receptor M4 (Homo sapiens) (UniProt P08173); conditions: Compound concentration 10.0 uM
[5] = target: Tyrosine-protein kinase JAK1 (Homo sapiens) (UniProt P23458); conditions: Compound concentration 1000.0 nM
[6] = target: Bone morphogenetic protein receptor type-2 (Homo sapiens) (UniProt Q13873); conditions: Compound concentration 1000.0 nM
[7] = target: Serine/threonine-protein kinase TAO1 (Homo sapiens) (UniProt Q7L7X3); conditions: Compound concentration 1000.0 nM
[8] = target: Discoidin domain-containing receptor 2 (Homo sapiens) (UniProt Q16832); conditions: Compound concentration 1000.0 nM
[9] = target: Myotonin-protein kinase (Homo sapiens) (UniProt Q09013); conditions: Compound concentration 1000.0 nM
[10] = target: Ephrin type-A receptor 7 (Homo sapiens) (UniProt Q15375); conditions: Compound concentration 1000.0 nM
[11] = target: Fibroblast growth factor receptor 3 (Homo sapiens) (UniProt P22607); conditions: Compound concentration 1000.0 nM
[12] = target: MAP kinase-interacting serine/threonine-protein kinase 1 (Homo sapiens) (UniProt Q9BUB5); conditions: Compound concentration 1000.0 nM
Sequence of MAP kinase-interacting serine/threonine-protein kinase 1 (Homo sapiens) (Q9BUB5 whole entry, looked up): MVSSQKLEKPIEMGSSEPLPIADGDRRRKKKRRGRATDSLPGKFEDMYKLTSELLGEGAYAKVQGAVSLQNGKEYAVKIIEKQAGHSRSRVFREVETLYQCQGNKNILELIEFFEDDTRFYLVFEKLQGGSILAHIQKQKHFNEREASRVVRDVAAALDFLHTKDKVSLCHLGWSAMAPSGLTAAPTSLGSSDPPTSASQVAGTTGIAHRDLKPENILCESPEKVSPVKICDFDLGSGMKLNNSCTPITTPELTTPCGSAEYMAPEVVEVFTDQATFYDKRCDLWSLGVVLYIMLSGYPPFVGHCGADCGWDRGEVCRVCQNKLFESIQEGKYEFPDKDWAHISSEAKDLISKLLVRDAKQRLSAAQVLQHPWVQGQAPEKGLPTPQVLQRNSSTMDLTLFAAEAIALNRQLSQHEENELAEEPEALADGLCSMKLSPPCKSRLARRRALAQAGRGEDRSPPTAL

[13] = target: Mitogen-activated protein kinase 8 (Homo sapiens) (UniProt P45983); conditions: Compound concentration 1000.0 nM
[14] = target: Protein-tyrosine kinase 2-beta (Homo sapiens) (UniProt Q14289); conditions: Compound concentration 1000.0 nM
[15] = target: MAP/microtubule affinity-regulating kinase 4 (Homo sapiens) (UniProt Q96L34); conditions: Compound concentration 1000.0 nM
[16] = system: Tyrosine-protein kinase ABL1 (Homo sapiens), P00519 [F317L]; conditions: Compound concentration 1000.0 nM
[17] = system: eIF-2-alpha kinase GCN2 (Homo sapiens), Q9P2K8 [S808G]; conditions: Compound concentration 1000.0 nM
[18] = system: Phosphatidylinositol 4,5-bisphosphate 3-kinase catalytic subunit alpha isoform (Homo sapiens), P42336 [Q546K]; conditions: Compound concentration 1000.0 nM
[19] = target: Serine/threonine-protein kinase D2 (Homo sapiens) (UniProt Q9BZL6); conditions: Compound concentration 1000.0 nM
[20] = target: Activin receptor type-2B (Homo sapiens) (UniProt Q13705); conditions: Compound concentration 1000.0 nM
[21] = system: Epidermal growth factor receptor (Homo sapiens), P00533 [UNDEFINED MUTATION]; conditions: Compound concentration 1000.0 nM
Sequence of Epidermal growth factor receptor (Homo sapiens), P00533 [UNDEFINED MUTATION] (P00533 whole entry, looked up, change not shown): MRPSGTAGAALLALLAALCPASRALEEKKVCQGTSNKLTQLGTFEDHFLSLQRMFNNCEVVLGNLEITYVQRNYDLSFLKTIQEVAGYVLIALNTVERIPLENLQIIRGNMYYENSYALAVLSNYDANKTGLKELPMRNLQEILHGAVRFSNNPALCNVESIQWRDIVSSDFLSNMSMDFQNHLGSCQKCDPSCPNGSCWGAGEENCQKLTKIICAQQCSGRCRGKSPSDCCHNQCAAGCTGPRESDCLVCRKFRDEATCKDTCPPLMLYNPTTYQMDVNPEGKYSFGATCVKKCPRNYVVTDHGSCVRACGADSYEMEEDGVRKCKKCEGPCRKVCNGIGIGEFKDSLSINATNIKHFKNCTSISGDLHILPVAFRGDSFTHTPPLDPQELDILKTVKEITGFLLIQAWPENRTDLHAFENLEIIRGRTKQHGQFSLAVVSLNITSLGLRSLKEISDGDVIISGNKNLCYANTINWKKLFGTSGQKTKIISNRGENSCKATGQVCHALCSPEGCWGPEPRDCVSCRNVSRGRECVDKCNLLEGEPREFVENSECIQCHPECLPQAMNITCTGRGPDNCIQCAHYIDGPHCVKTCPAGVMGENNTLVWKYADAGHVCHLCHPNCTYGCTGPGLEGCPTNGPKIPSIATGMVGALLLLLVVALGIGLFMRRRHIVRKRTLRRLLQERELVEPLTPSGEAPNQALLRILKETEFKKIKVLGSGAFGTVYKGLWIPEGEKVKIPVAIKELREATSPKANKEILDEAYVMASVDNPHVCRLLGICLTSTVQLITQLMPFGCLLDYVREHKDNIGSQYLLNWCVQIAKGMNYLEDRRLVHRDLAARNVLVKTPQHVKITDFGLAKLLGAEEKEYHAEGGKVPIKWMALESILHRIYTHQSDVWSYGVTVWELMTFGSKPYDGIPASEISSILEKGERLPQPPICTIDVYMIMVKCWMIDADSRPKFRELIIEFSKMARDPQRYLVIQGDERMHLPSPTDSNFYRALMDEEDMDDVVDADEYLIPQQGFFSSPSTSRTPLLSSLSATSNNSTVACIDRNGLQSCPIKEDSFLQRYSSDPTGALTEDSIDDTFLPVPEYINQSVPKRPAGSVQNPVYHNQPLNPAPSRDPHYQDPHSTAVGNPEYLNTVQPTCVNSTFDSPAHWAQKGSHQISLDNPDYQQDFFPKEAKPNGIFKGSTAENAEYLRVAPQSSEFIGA

[22] = target: Mitogen-activated protein kinase kinase kinase 14 (Homo sapiens) (UniProt Q99558); conditions: Compound concentration 1000.0 nM
[23] = target: Dual specificity protein kinase CLK1 (Homo sapiens) (UniProt P49759); conditions: Compound concentration 1000.0 nM
[24] = target: Aurora kinase A (Homo sapiens) (UniProt O14965); conditions: Compound concentration 1000.0 nM
[25] = target: Cyclin-dependent kinase 2 homolog (Plasmodium falciparum (isolate 3D7)) (UniProt P61075); conditions: Compound concentration 1000.0 nM
Sequence of Cyclin-dependent kinase 2 homolog (Plasmodium falciparum (isolate 3D7)) (P61075 whole entry): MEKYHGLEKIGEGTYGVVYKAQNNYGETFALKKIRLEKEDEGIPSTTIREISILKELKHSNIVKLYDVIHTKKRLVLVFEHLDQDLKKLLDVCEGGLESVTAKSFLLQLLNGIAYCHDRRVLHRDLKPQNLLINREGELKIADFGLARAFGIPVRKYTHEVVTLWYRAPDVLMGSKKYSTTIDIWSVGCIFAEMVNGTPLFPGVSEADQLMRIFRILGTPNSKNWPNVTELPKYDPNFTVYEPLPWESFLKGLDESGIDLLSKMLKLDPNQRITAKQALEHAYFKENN

[26] = target: GABA-A receptor; anion channel (Rattus norvegicus) (UniProt O09028+P15431+P18506+P18508+P19969+P20236+P23574+P23576+P28471+P28473+P30191+P62813+P63079+P63138+Q91ZM7+Q9ES14); conditions: Compound concentration 10.0 uM
[27] = target: Serine/threonine-protein kinase PknB (Mycobacterium tuberculosis) (UniProt P9WI81); conditions: Compound concentration 1000.0 nM
Sequence of Serine/threonine-protein kinase PknB (Mycobacterium tuberculosis) (P9WI81 whole entry): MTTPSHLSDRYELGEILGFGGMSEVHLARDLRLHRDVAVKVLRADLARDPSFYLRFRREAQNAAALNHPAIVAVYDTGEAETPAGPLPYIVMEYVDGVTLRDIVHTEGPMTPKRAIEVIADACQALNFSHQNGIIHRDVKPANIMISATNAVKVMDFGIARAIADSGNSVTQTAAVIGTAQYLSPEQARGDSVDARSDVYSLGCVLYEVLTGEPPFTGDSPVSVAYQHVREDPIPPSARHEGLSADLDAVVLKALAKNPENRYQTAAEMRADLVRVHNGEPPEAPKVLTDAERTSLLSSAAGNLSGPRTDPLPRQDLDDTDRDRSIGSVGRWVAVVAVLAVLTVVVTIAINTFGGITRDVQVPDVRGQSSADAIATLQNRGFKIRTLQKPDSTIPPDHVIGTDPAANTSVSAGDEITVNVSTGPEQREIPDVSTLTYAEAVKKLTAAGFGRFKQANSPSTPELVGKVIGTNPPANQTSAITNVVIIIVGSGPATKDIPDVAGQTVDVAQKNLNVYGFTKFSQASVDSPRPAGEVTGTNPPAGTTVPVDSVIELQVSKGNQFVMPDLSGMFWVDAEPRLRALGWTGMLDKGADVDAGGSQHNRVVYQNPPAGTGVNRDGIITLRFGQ

[28] = target: Mitogen-activated protein kinase kinase kinase kinase 5 (Homo sapiens) (UniProt Q9Y4K4); conditions: Compound concentration 1000.0 nM
[29] = target: 5'-AMP-activated protein kinase catalytic subunit alpha-2 (Homo sapiens) (UniProt P54646); conditions: Compound concentration 1000.0 nM
Sequence of 5'-AMP-activated protein kinase catalytic subunit alpha-2 (Homo sapiens) (P54646 whole entry, looked up): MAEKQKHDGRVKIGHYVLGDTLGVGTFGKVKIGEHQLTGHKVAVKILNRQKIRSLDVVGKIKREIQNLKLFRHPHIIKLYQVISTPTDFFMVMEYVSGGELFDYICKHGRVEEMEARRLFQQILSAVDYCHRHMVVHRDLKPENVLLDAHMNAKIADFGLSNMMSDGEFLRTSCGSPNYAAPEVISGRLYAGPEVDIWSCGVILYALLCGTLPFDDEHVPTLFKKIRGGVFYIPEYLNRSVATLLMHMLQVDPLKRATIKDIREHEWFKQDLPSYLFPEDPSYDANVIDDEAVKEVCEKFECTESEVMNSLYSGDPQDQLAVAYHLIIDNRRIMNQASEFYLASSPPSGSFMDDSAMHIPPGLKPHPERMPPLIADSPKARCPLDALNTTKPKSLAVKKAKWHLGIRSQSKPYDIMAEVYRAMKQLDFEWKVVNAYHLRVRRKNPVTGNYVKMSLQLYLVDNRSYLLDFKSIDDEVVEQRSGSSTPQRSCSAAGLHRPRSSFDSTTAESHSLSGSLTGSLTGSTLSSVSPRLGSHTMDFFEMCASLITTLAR

[30] = target: Serine/threonine-protein kinase Nek11 (Homo sapiens) (UniProt Q8NG66); conditions: Compound concentration 1000.0 nM
Sequence of Serine/threonine-protein kinase Nek11 (Homo sapiens) (Q8NG66 whole entry): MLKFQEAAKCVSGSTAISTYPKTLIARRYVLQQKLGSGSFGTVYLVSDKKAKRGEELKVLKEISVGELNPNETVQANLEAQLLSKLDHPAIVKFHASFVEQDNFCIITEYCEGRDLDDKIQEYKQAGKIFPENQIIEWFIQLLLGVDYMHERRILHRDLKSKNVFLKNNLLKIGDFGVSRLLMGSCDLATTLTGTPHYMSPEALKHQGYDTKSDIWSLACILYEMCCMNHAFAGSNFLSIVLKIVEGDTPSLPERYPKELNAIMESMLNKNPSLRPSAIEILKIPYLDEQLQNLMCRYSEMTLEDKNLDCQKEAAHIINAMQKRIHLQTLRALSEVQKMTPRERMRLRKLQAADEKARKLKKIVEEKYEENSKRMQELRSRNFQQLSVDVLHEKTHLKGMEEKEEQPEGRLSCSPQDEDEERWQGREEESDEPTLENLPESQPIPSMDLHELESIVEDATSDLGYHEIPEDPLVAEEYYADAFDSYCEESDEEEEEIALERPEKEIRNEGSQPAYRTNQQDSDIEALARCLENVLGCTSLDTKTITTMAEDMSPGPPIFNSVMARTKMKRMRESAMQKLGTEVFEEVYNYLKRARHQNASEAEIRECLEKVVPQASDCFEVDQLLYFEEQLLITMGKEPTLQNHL

[31] = target: 5-hydroxytryptamine receptor 3A (Homo sapiens) (UniProt P46098); conditions: Compound concentration 10.0 uM
[32] = target: NUAK family SNF1-like kinase 1 (Homo sapiens) (UniProt O60285); conditions: Compound concentration 1000.0 nM
Sequence of NUAK family SNF1-like kinase 1 (Homo sapiens) (O60285 whole entry): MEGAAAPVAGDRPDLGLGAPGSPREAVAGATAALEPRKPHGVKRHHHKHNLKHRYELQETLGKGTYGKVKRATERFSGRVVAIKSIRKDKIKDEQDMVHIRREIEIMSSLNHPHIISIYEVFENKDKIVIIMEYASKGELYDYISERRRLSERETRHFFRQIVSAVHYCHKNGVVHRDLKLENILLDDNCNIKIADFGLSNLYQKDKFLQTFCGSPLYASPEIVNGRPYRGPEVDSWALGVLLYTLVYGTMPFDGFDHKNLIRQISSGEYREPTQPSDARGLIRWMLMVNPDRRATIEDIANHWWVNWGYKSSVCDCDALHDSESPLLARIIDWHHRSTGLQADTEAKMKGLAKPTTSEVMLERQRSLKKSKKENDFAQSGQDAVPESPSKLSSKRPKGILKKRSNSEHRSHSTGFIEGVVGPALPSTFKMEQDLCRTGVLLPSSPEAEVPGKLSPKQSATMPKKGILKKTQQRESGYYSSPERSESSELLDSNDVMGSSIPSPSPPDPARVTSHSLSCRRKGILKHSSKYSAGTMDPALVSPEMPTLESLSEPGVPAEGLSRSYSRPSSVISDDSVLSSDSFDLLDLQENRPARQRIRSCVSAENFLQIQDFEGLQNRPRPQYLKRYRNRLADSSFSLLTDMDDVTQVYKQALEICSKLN

[33] = target: Calcium/calmodulin-dependent protein kinase type IV (Homo sapiens) (UniProt Q16566); conditions: Compound concentration 1000.0 nM
[34] = target: Serine/threonine-protein kinase 32B (Homo sapiens) (UniProt Q9NY57); conditions: Compound concentration 1000.0 nM
[35] = target: Testis-specific serine/threonine-protein kinase 1 (Homo sapiens) (UniProt Q9BXA7); conditions: Compound concentration 1000.0 nM
[36] = target: Serine/threonine-protein kinase/endoribonuclease IRE1 (Homo sapiens) (UniProt O75460); conditions: Compound concentration 1000.0 nM
[37] = target: Fibroblast growth factor receptor 2 (Homo sapiens) (UniProt P21802); conditions: Compound concentration 1000.0 nM
[38] = target: Phosphatidylinositol 4-phosphate 3-kinase C2 domain-containing subunit beta (Homo sapiens) (UniProt O00750); conditions: Compound concentration 1000.0 nM
[39] = target: Death-associated protein kinase 2 (Homo sapiens) (UniProt Q9UIK4); conditions: Compound concentration 1000.0 nM
[40] = target: cAMP-dependent protein kinase catalytic subunit alpha (Homo sapiens) (UniProt P17612); conditions: Compound concentration 1000.0 nM
[41] = target: Dual specificity protein kinase CLK4 (Homo sapiens) (UniProt Q9HAZ1); conditions: Compound concentration 1000.0 nM
Sequence of Dual specificity protein kinase CLK4 (Homo sapiens) (Q9HAZ1 whole entry, looked up): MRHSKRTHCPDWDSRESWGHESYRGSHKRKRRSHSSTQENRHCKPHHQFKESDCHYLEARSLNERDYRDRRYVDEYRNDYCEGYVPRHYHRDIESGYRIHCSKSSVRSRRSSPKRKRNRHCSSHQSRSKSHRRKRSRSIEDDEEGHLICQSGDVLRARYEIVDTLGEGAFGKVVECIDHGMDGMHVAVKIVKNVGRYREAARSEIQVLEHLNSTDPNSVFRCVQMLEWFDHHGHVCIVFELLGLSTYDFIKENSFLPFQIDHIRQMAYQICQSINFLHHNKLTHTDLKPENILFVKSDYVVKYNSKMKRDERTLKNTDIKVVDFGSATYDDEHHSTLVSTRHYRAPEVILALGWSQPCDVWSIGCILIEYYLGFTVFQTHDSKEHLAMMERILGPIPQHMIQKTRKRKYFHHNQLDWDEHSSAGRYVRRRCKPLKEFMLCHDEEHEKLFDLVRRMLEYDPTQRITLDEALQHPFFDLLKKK

[42] = target: cAMP-dependent protein kinase catalytic subunit PRKX (Homo sapiens) (UniProt P51817); conditions: Compound concentration 1000.0 nM
[43] = system: Tyrosine-protein kinase ABL1 (Homo sapiens), P00519 [F317I]; conditions: Compound concentration 1000.0 nM

In the case of COc1cc(-c2cn([C@H]3CCc4ccccc4N(CC(F)(F)F)C3=O)nn2)ccc1-n1ccc(C)n1, the residual activity [1] is reported as 89%, the residual activity [2] is reported as 100% and the residual activity [3] is reported as 91%. The inhibition [4] was 6.94%, the residual activity [5] was 87% and the residual activity [6] was 100%. For the same molecule, the residual activity [7] was 92%, the residual activity [8] was 99% and the residual activity [9] was 96%. For the same molecule, the residual activity [10] was 100%, the residual activity [11] was 100% and the residual activity [12] was 78%. For the same molecule, the residual activity [13] was 55%, the residual activity [14] was 100% and the residual activity [15] was 100%. It also gave a residual activity [16] of 64%, a residual activity [17] of 100% and a residual activity [18] of 97%. The residual activity [19] was 86%, the residual activity [20] was 100% and the residual activity [21] was 100%. For the same molecule, the residual activity [22] was 69%, the residual activity [23] was 87% and the residual activity [24] was 58%. The residual activity [25] was 100%, the inhibition [26] was 0.92% and the residual activity [27] was 78%. The residual activity [28] was 100%, the residual activity [29] was 71% and the residual activity [30] was 99%. For the same molecule, the inhibition [31] was -9.73%, the residual activity [32] was 92% and the residual activity [33] was 100%. For the same molecule, the residual activity [34] was 85%, the residual activity [35] was 83% and the residual activity [36] was 86%. For the same molecule, the residual activity [37] was 100%, the residual activity [38] was 100% and the residual activity [39] was 100%. The residual activity [40] was 100%, the residual activity [41] was 80% and the residual activity [42] was 95%. For the same molecule, the residual activity [43] was 67%.
COc1cc(-c2cn([C@H]3CCc4c(F)cccc4N(CC(F)(F)F)C3=O)nn2)ccc1-n1cnc(C)c1 gave a residual activity [1] of 100%, a residual activity [2] of 100% and a residual activity [3] of 84%. For the same molecule, the inhibition [4] was 26.2%, the residual activity [5] was 100% and the residual activity [6] was 100%. It also gave a residual activity [7] of 100%, a residual activity [8] of 100% and a residual activity [9] of 99%. For the same molecule, the residual activity [10] was 100%, the residual activity [11] was 100% and the residual activity [12] was 87%. For the same molecule, the residual activity [13] was 52%, the residual activity [14] was 100% and the residual activity [15] was 100%. For the same molecule, the residual activity [16] was 85%, the residual activity [17] was 100% and the residual activity [18] was 90%. The residual activity [19] was 100%, the residual activity [20] was 100% and the residual activity [21] was 94%. For the same molecule, the residual activity [22] was 86%, the residual activity [23] was 77% and the residual activity [24] was 100%. The residual activity [25] was 100%, the inhibition [26] was 28.6% and the residual activity [27] was 82%. For the same molecule, the residual activity [28] was 5.8%, the residual activity [29] was 100% and the residual activity [30] was 100%. For the same molecule, the inhibition [31] was -8%, the residual activity [32] was 100% and the residual activity [33] was 100%. For the same molecule, the residual activity [34] was 100%, the residual activity [35] was 100% and the residual activity [36] was 100%. It also gave a residual activity [37] of 100%, a residual activity [38] of 100% and a residual activity [39] of 100%. It also gave a residual activity [40] of 100%, a residual activity [41] of 100% and a residual activity [42] of 100%. It also gave a residual activity [43] of 100%.
